In paper PMC7369796, “The Diverse Piscidin Repertoire of the European Sea Bass (Dicentrarchus labrax): Molecular Characterization and Antimicrobial Activities” (International Journal of Molecular Sciences, 2020):
Like-named read-outs stand apart in the source and are kept apart here. Ends that are not written are not given here.

Legend:
[1] = tested on: P. damselae subsp. damselae (DSM 7482); type: cell-based, Photobacterium damselae subsp. damselae; settings: DSM 7482, 24 h
Method: (§1) The biological activity of sea bass piscidin mature peptides was studied by determining their antimicrobial properties. Synthetic piscidin peptides were based on the predicted coding sequences and were commercially produced (NZYtech, Lisbon, Portugal) with an additional C-terminal amidation (Table S3). Peptides were incubated in serial dilutions with ten bacterial strains, known to cause severe diseases in aquaculture: Photobacterium damselae subsp. piscicida (DSM 22834), P. damselae subsp. damselae (DSM 7482), Vibro anguillarum (DSM 21597), V. alginolyticus (DSM 2171), Aeromonas salmonicida subsp. salmonicida (DSM 19634), A. hydrophila subsp. hydrophila (DSM 30187), Yersinia ruckeri (DSM 18506), Edwardsiella tarda (DSM 30052), Lactococcus garviae (DSM 20684) and Streptococcus parauberis (DSM 6631). In short, 1 × 10^8 bacteria per milliliter were incubated in optimal growth conditions with the peptide in flat-bottom 96-well plates, in a final volume of 100 µL, and OD was read at 600 nm in a plate reader after 24 h of incubation. Wells with no added peptide were used as controls, and wells without bacteria were used as blanks. The minimal inhibitory concentration (MIC) was determined as the lowest concentration of piscidin that reduced 50% of bacterial growth when compared to the controls. The MICs reported correspond to representative results from two independent experiments.

[2] = tested on: Vibro anguillarum (DSM 21597); type: cell-based, V. anguillarum; settings: DSM 21597, 24 h
Method: as §1

[3] = tested on: Aeromonas salmonicida subsp. salmonicida (DSM 19634); type: cell-based; settings: DSM 19634, 24 h
Method: as §1

[4] = tested on: Lactococcus garviae (DSM 20684); type: cell-based; settings: DSM 20684, 24 h
Method: as §1

[5] = tested on: Photobacterium damselae subsp. piscicida (DSM 22834); type: cell-based; settings: DSM 22834, 24 h
Method: as §1

[6] = tested on: Streptococcus parauberis (DSM 6631); type: cell-based
Method: as §1

[7] = tested on: V. alginolyticus (DSM 2171); type: cell-based; settings: DSM 2171, 24 h
Method: as §1

[8] = tested on: Yersinia ruckeri (DSM 18506); type: cell-based; settings: DSM 18506, 24 h
Method: as §1

[9] = tested on: Trypanosoma brucei brucei bloodstream forms (strain Lister 427); assay: Antiparasitic activity (resazurin reduction, IC50); type: cell-based; settings: T. brucei brucei bloodstream forms; 72 h, serial dilutions up to 100 µM, 96-well, 200 µL; resazurin reduction (fluorescence 544/590 nm); non-linear regression; means ± SD, two separate experiments
Method: (§2) The anti-protozoal activity of sea bass piscidins was evaluated using two parasites: Trypanosoma brucei brucei bloodstream forms (strain Lister 427) and Leishmania infantum promastigotes (strain MHOM/MA/67/ITMAP-263). Parasites were incubated in optimal growth conditions with serial dilutions of the different peptides in flat-bottom 96-well plates, in a final volume of 200 µL, during 72 h. Cell metabolic activity was measured by resazurin reduction. Briefly, 20 µL of resazurin (50 µM) were added and incubated for 4 h. The fluorescence of resorufin, resulting from resazurin reduction by metabolically active cells, was measured at λex = 544 nm and λem = 590 nm in Synergy 2 (BioTek, Winooski, Vermont, USA). Cultures with no added peptide were used as negative controls and cultures with the reference drugs, namely pentamidine (10 nM) and miltefosine (40 µM) were used as positive controls for T. brucei and L. infantum inhibition assays, respectively. Wells with culture medium were used as blanks. Anti-parasitic effect was evaluated by the determination of IC50 value (concentration required to inhibit growth in 50%) and calculated by non-linear regression analysis using GraphPad Prism version 8.1.1 for Windows (GraphPad Software, San Diego, CA, USA). The IC50 reported correspond to representative results from two independent experiments.

[10] = tested on: Leishmania infantum promastigotes (strain MHOM/MA/67/ITMAP-263); type: cell-based; settings: 72 h
Method: as §2

| Substance | MIC [1] [µM] | MIC [2] [µM] | MIC [3] [µM] | MIC [4] [µM] | MIC [5] [µM] | MIC ([6]; DSM 6631, 24 h) [µM] | MIC [7] [µM] | MIC [8] [µM] | IC50 [9] [µM] | IC50 [10] [µM] | MIC ([6]; S. parauberis, 1 × 10^8 bacteria/mL, 96-well, 100 µL, 24 h, OD 600 nm, serial dilutions up to 200 µM, MIC = lowest concentration that reduced 50% of bacterial growth vs controls, means ± SD, two separate experiments, N.A. = not active at the highest concentration tested) [µM] |
| --- | --- | --- | --- | --- | --- | --- | --- | --- | --- | --- | --- |
| LIGSLFRGAKAIFRGARQGWRAHKAVSRYRAGYVRRPVVYYHRVYP-NH2 [Piscidin5] | 14.8 ± 2.0 | 10.1 ± 2.7 | 47.9 ± 6.1 | 42.3 ± 16.4 | 3.3 ± 0.1 | 1.3 ± 1.2 | 36.9 ± 2.3 | 25.4 ± 1.8 | 4.42 ± 0.12 | 7.24 ± 0.61 |  |
| FLGRFFRRTQAILRGARQGWRAHKAVSRYRDRYIPETDNNQEQP-NH2 [Piscidin2] | 105.8 ± 22.1 | 146.1 ± 21.4 | 67.7 ± 0.2 |  | 9.1 ± 1.7 | 6.9 ± 2.8 | 66.2 ± 2.0 | 137.6 ± 3.1 | 1.74 ± 0.13 | 5.52 ± 0.26 |  |
| FLGRVKSMWSGVRNGYKAYKYQRNMAKMNKGYGPNWQQGGGQEPPADAQANDQPP-NH2 [Piscidin7] |  |  |  |  |  |  |  |  | 7.3 ± 0.32 | 66.77 ± 0.08 |  |
| FIHHIFRGIINAGKSIGRFITG-NH2 [Piscidin4] | 81.3 ± 9.5 |  |  | 48.8 ± 40.1 | 29.1 ± 12.0 | 1.8 ± 1.8 |  |  | 3.24 ± 0.16 | 8.34 ± 0.81 |  |
| LFGSLKAWFKGGKQASRDYKYQKDMAKMNKRYGPNWQQGGGQQPPANAQANDQPPADAQANDQPS-NH2 [Piscidin6, synthetic putative mature peptide of European sea bass piscidin 6, 65 aa, MT066195] |  |  |  |  |  |  |  |  | 56.5 ± 1.61 |  | 87.7 ± 123.0 |
| FFHHIFRGIVHVGKTIHRLVTG-NH2 [Piscidin1] | 15.0 ± 0.2 | 16.3 ± 0.6 | 64.2 ± 2.1 | 33.9 ± 3.8 | 7.4 ± 1.6 | 2.4 ± 0.8 | 34.8 ± 0.3 | 48.4 ± 3.8 | 3.88 ± 0.11 | 5.2 ± 0.03 |  |
